Where a name gives a salt, the structure may show the parent alone.
Target: T1, human TRPC6 (Homo sapiens, UniProt Q9Y210)
T1 construct: expressed in transfected cells
T1 sequence (Q9Y210 1-931): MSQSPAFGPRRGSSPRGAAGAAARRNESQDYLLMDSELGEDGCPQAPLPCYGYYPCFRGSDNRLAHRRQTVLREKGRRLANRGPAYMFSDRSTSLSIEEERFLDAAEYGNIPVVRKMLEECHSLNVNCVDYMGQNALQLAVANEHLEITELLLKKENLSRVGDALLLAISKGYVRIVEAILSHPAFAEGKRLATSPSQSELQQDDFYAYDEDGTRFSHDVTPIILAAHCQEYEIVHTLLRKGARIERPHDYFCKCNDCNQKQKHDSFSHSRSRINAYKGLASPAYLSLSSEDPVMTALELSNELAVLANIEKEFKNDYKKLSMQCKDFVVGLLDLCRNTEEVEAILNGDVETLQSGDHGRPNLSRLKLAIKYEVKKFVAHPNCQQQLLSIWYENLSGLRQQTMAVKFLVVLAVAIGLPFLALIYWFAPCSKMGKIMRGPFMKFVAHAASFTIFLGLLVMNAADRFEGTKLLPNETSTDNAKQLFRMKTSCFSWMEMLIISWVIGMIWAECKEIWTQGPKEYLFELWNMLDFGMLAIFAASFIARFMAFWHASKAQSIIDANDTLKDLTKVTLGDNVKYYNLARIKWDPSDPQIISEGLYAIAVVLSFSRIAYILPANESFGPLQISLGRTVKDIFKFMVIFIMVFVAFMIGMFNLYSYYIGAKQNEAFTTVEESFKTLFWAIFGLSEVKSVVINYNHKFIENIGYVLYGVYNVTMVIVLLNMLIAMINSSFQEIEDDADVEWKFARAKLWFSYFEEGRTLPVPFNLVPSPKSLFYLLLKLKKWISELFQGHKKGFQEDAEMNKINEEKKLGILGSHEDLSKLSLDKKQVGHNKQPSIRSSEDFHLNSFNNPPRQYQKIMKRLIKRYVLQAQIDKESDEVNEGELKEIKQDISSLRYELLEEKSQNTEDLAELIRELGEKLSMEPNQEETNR
Assay: TRPC6 calcium flux assay (FLIPR, OAG-stimulated calcium influx)
Format: cell-based
Settings: HEK293 cells stably transfected with human TRPC6, read-out: hTRPC6 Potency
Summary of the method: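 HEK293 cells stably expressing human TRPC6, loaded with calcium dye 90–120 min at RT, then given compound for 25 min before OAG (50 uM final, 0.5% DMSO) in HEPES buffer pH 7.2 with 2 mM CaCl2. Background-subtracted FLIPR peak over 180 s normalized to OAG vs buffer; IC50 from dose plot.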

IC50 | Structure (SMILES)
73.5 nM | N#Cc1ccc(Cn2c(N3CCC[C@@]4(CCN4)C3)nc3ccccc32)nc1 [Example 27, (R)-6-((2-(1,6-diazaspiro[3.5]nonan-6-yl)-1H-benzo[d]imidazol-1-yl)methyl)nicotinointrile]
> 3750 nM | N#Cc1ccc(Cn2c(N3CCC[C@]4(CCN4)C3)nc3ccccc32)nc1 [Example 28, (S)-6-((2-(1,6-diazaspiro[3.5]nonan-6-yl)-1H-benzo[d]imidazol-1-yl)methyl)nicotinonitrile]
44.8 nM | CS(=O)(=O)c1ccc2nc(N3CC[C@@H](F)[C@H](N)C3)n(Cc3ccc(Cl)cn3)c2c1 [Example 29, (3R,4R)-1-(1-((5-chloropyridin-2-yl)methyl)-6-(methylsulfonyl)-1H-benzo[d]imidazol-2-yl)-4-fluoropiperidin-3-amine]
1940 nM | CS(=O)(=O)c1ccc2c(c1)nc(N1CC[C@@H](F)[C@H](N)C1)n2Cc1ccc(Cl)cn1 [Example 30, (3R,4R)-1-(1-((5-chloropyridin-2-yl)methyl)-5-(methylsulfonyl)-1H-benzo[d]imidazol-2-yl)-4-fluoropiperidin-3-amine]
0.476 nM | N#Cc1cc(F)cc2c1nc(N1CC[C@@H](F)[C@H](N)C1)n2Cc1ncc(Cl)cn1 [Example 31, 2-((3R,4R)-3-amino-4-fluoropiperidin-1-yl)-1-((5-chloropyrimidin-2-yl)methyl)-6-fluoro-1H-benzo[d]imidazole-4-carbonitrile]
47.2 nM | N[C@@H]1CN(c2nc3cc(F)cc(F)c3n2Cc2ccc(F)cn2)CC[C@H]1F [Example 32, (3R,4R)-1-(5,7-difluoro-1-((5-fluoropyridin-2-yl)methyl)-1H-benzo[d]imidazol-2-yl)-4-fluoropiperidin-3-amine]
0.432 nM | N[C@@H]1CN(c2nc3c(F)cc(F)cc3n2Cc2ccc(F)cn2)CC[C@H]1F [Example 33, (3R,4R)-1-(4,6-difluoro-1-((5-fluoropyridin-2-yl)methyl)-1H-benzo[d]imidazol-2-yl)-4-fluoropiperidin-3-amine]
68.9 nM | N[C@@H]1CN(c2nc3cc(F)cc(F)c3n2Cc2ncc(F)cn2)CC[C@H]1F [Example 34, (3R,4R)-1-(5,7-difluoro-1-((5-fluoropyrimidin-2-yl)methyl)-1H-benzo[d]imidazol-2-yl)-4-fluoropiperidin-3-amine]
0.491 nM | N[C@@H]1CN(c2nc3c(F)cc(F)cc3n2Cc2ncc(F)cn2)CC[C@H]1F [Example 35, (3R,4R)-1-(4,6-difluoro-1-((5-fluoropyrimidin-2-yl)methyl)-1H-benzo[d]imidazol-2-yl)-4-fluoropiperidin-3-amine]
6.13 nM | N#Cc1cc(F)cc2c1nc(N1CC[C@H](F)[C@H](N)C1)n2Cc1ncc(F)cn1 [Example 36, 2-((3R,4S)-3-amino-4-fluoropiperidin-1-yl)-6-fluoro-1-((5-fluoropyrimidin-2-yl)methyl)-1H-benzo[d]imidazole-4-carbonitrile]
6.92 nM | N#Cc1cc(F)cc2c1nc(N1CC[C@@H](F)[C@H](N)C1)n2Cc1ncc(F)cn1 [Example 37, 2-((3R,4R)-3-amino-4-fluoropiperidin-1-yl)-6-fluoro-1-((5-fluoropyrimidin-2-yl)methyl)-1H-benzo[d]imidazole-4-carbonitrile]
0.72 nM | N#Cc1ccc(Cn2c(N3CC[C@@H](F)[C@H](N)C3)nc3ccccc32)nc1 [Example 38, 6-((2-((3R,4R)-3-amino-4-fluoropiperidin-1-yl)-1H-benzo[d]imidazol-1-yl)methyl)nicotinonitrile]
0.867 nM | N[C@@H]1CN(c2nc3ccc(F)cc3n2Cc2ncc(Cl)cn2)CC[C@@H]1F [Example 39, (3R,4S)-1-(1-((5-chloropyrimidin-2-yl)methyl)-6-fluoro-1H-benzo[d]imidazol-2-yl)-4-fluoropiperidin-3-amine]
4.61 nM | N[C@@H]1CN(c2nc3cc(F)ccc3n2Cc2ncc(Cl)cn2)CC[C@@H]1F [Example 40, (3R,4S)-1-(1-((5-chloropyrimidin-2-yl)methyl)-5-fluoro-1H-benzo[d]imidazol-2-yl)-4-fluoropiperidin-3-amine]
18.4 nM | N#Cc1ccc2nc(N3CCC(F)(F)[C@H](N)C3)n(Cc3ncc(Cl)cn3)c2c1 [Example 41, (R)-2-(3-amino-4,4-difluoropiperidin-1-yl)-1-((5-chloropyrimidin-2-yl)methyl)-1H-benzo[d]imidazole-6-carbonitrile]
1940 nM | N#Cc1ccc2c(c1)nc(N1CCC(F)(F)[C@H](N)C1)n2Cc1ncc(Cl)cn1 [Example 42, (R)-2-(3-amino-4,4-difluoropiperidin-1-yl)-1-((5-chloropyrimidin-2-yl)methyl)-1H-benzo[d]imidazole-5-carbonitrile]
0.581 nM | N#Cc1ccc(Cn2c(N3CC[C@@H](F)[C@H](N)C3)nc3cc(Cl)c(Cl)cc32)nc1 [Example 43, 6-((2-((3R,4R)-3-amino-4-fluoropiperidin-1-yl)-5,6-dichloro-1H-benzo[d]imidazol-1-yl)methyl)nicotinonitrile]
0.952 nM | Cc1cc2nc(N3CC[C@@H](F)[C@H](N)C3)n(Cc3ccc(C#N)cn3)c2cc1C [Example 44]
2.36 nM | N#Cc1ccc(Cn2c(N3CCC[C@H](N)C3)nc3ccc(F)cc32)nc1 [Example 45, (S)-6-((2-(3-aminopiperidin-1-yl)-6-fluoro-1H-benzo[d]imidazol-1-yl)methyl)nicotinonitrile hydrochloride]
1.78 nM | N#Cc1ccc(Cn2c(N3CCC[C@H](N)C3)nc3cc(F)ccc32)nc1 [Example 46, (S)-6-((2-(3-aminopiperidin-1-yl)-5-fluoro-1H-benzo[d]imidazol-1-yl)methyl)nicotinonitrile hydrochloride]
0.686 nM | N#Cc1ccc(Cn2c(N3CC[C@H](F)[C@H](N)C3)nc3ccc(F)cc32)nc1 [Example 47, 6-((2-((3R,4S)-3-amino-4-fluoropiperidin-1-yl)-6-fluoro-1H-benzo[d]imidazol-1-yl)methyl)nicotinonitrile hydrochloride]
2.21 nM | N#Cc1ccc(Cn2c(N3CC[C@H](F)[C@H](N)C3)nc3cc(F)ccc32)nc1 [Example 48, 6-((2-((3R,4S)-3-amino-4-fluoropiperidin-1-yl)-5-fluoro-1H-benzo[d]imidazol-1-yl)methyl)nicotinonitrile hydrochloride]
1.09 nM | N#Cc1ccc(Cn2c(N3CC[C@@H](F)[C@H](N)C3)nc3cc(F)ccc32)nc1 [Example 49, 6-((2-((3R,4R)-3-amino-4-fluoropiperidin-1-yl)-5-fluoro-1H-benzo[d]imidazol-1-yl)methyl)nicotinonitrile hydrochloride]
6.47 nM | N#Cc1ccc(Cn2c(N3CCC[C@H](N)C3)nc3ccc(C#N)cc32)nc1 [Example 51, (S)-2-(3-aminopiperidin-1-yl)-1-((5-cyanopyridin-2-yl)methyl)-1H-benzo[d]imidazole-6-carbonitrile]
24.2 nM | N#Cc1ccc(Cn2c(N3CCC[C@H](N)C3)nc3cc(C#N)ccc32)nc1 [Example 52, (S)-2-(3-aminopiperidin-1-yl)-1-((5-cyanopyridin-2-yl)methyl)-1H-benzo[d]imidazole-5-carbonitrile]
1.52 nM | N#Cc1ccc(Cn2c(N3CC[C@@H](F)[C@H](N)C3)nc3ccc(C#N)cc32)nc1 [Example 53, 2-((3R,4R)-3-amino-4-fluoropiperidin-1-yl)-1-((5-cyanopyridin-2-yl)methyl)-1H-benzo[d]imidazole-6-carbonitrile]
5.52 nM | N#Cc1ccc(Cn2c(N3CC[C@@H](F)[C@H](N)C3)nc3cc(C#N)ccc32)nc1 [Example 54, 2-((3R,4R)-3-amino-4-fluoropiperidin-1-yl)-1-((5-cyanopyridin-2-yl)methyl)-1H-benzo[d]imidazole-5-carbonitrile]
3.97 nM | N#Cc1ccc(Cn2c(N3CCC(F)(F)[C@H](N)C3)nc3ccc(C#N)cc32)nc1 [Example 55, (R)-2-(3-amino-4,4-difluoropiperidin-1-yl)-1-((5-cyanopyridin-2-yl)methyl)-1H-benzo[d]imidazole-6-carbonitrile]
13.5 nM | N#Cc1ccc(Cn2c(N3CCC(F)(F)[C@H](N)C3)nc3cc(C#N)ccc32)nc1 [Example 56, (R)-2-(3-amino-4,4-difluoropiperidin-1-yl)-1-((5-cyanopyridin-2-yl)methyl)-1H-benzo[d]imidazole-5-carbonitrile]
0.784 nM | N#Cc1ccc(Cn2c(N3CCC[C@H](N)C3)nc3c(Cl)cc(Cl)cc32)nc1 [Example 57, (S)-6-((2-(3-aminopiperidin-1-yl)-4,6-dichloro-1H-benzo[d]imidazol-1-yl)methyl)nicotinonitrile]

— US11332459B2 (TEIJIN PHARMA LIMITED, priority 2017, dated 2022)
